In patent US10517889B2, “Modulators of SMAD7 expression” (Ionis Pharmaceuticals, Inc., priority 2017, dated 2019):
Strand notation (5' to 3'): a small letter for the sugar, then the base; units joined by * are phosphorothioate-linked, units joined directly phosphodiester-linked; [ ] holds rarer units or linkages, { } end groups; capitals alone tell only the bases. k = constrained ethyl (cEt); [5mC] = 5-methylcytosine; d = 2'-deoxy (DNA)

Tests used:
[1] = system: human SMAD7 mRNA; test: Antisense inhibition of human SMAD7 mRNA expression in Hep3B cells by 3-10-3 cEt gapmers, 10,000 nM, electroporation (Example 2); assay type: cell-based; conditions: approximately 24 hours
Summary of the method: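 Percent inhibition of SMAD7 mRNA, relative to untreated cells, after ~24 h exposure of electroporated Hep3B cells to 10,000 nM cEt gapmer; levels by qRT-PCR, corrected for total RNA.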

[2] = system: human SMAD7 mRNA; test: Dose-dependent inhibition of human SMAD7 mRNA expression in Hep3B cells (Example 3, Study 1 and 2); assay type: cell-based; conditions: electroporation; for % inhibition of SMAD7 mRNA expression: approximately 16 hours; for IC50: Study 2 (740-20000 nM)
Protocol: The antisense oligonucleotides were tested in a series of experiments that had similar culture conditions as described below.
(§1) Cells were plated at a density of 20,000 cells per well and transfected using electroporation with 0.31 μM, 1.25 μM, 5.00 μM, or 20.00 μM concentrations of antisense oligonucleotide, as specified in the Tables below. ION 483663 was included in the assays for comparison. After a treatment period of approximately 16 hours, RNA was isolated from the cells and SMAD7 mRNA levels were measured by quantitative real-time PCR. Primer probe set RTS5062 was used to measure human SMAD7 mRNA levels. SMAD7 mRNA levels were adjusted according to total RNA content, as measured by RIBOGREEN®. Results are presented as percent inhibition of SMAD7 mRNA expression, relative to untreated control cells.
The half maximal inhibitory concentration (IC50) of each oligonucleotide is also presented.
as §1, with “0.74” for “0.31”, “2.22” for “1.25”, “6.67” for “5.00”, “below.” for “below. ION 483663 was included in the assays for comparison.”

[3] = Hep3B cells, electroporation with 10,000 nM antisense oligonucleotide, SMAD7 mRNA by RT-PCR (RTS5062), relative to untreated control cells
[4] = 740 nM, Study 2, relative to untreated control cells
[5] = SMAD7 mRNA, Hep3B cells, 10,000 nM antisense oligonucleotide, electroporation, primer probe set RTS5062, relative to untreated control cells
[6] = Hep3B cells, 10,000 nM antisense oligonucleotide, electroporation, RT-PCR primer probe set RTS5062, relative to untreated control cells
[7] = Hep3B cells, electroporation with 10,000 nM antisense oligonucleotide, RTS5062, percent inhibition of SMAD7 mRNA relative to untreated control cells
[8] = Hep3B cells, electroporation with 10,000 nM antisense oligonucleotide, primer probe set RTS5062, relative to untreated control cells

Substance	% Inhibition [1, 3] [%]	% inhibition of SMAD7 mRNA expression [2, 4] [%]	% inhibition of SMAD7 mRNA expression ([2]; 2220 nM, Study 2) [%]	% inhibition of SMAD7 mRNA expression ([2]; 6670.0 nM, Study 2) [%]	% inhibition of SMAD7 mRNA expression ([2]; 20000.0 nM, Study 2) [%]	IC50 [2] [µM]	% Inhibition [1, 5] [%]	% inhibition of SMAD7 mRNA expression ([1]; Hep3B cells, electroporation, 10,000 nM, 3-10-3 cEt gapmers targeting SEQ ID NO: 3 and 4) [%]	% Inhibition [1, 6] [%]	% Inhibition [1, 7] [%]	% inhibition of SMAD7 mRNA expression [1, 8] [%]
830028 (antisense k[5mC]*kA*kG*dT*d[5mC]*dA*dA*dG*dT*dT*dA*d[5mC]*dA*kG*kT*k[5mC]) [compound 830028]	75	54	70	85	93	3					
800025 (kA*kG*kT*dA*d[5mC]*dA*dA*dG*dG*dA*d[5mC]*dT*dA*kA*kG*kG; antisense) [compound 800025]	65	0	42	55	74	6					
790666 (kT*kA*kA*dT*dT*dT*dA*dT*dG*dA*d[5mC]*dA*dA*k[5mC]*kG*k[5mC]; antisense) [compound 790666]		13	49	54	74	4	72				
772553 (antisense kT*k[5mC]*kT*dT*dG*dA*dG*d[5mC]*dA*d[5mC]*d[5mC]*dG*dA*kG*kT*kG) [compound 772553]		36	45	71	89	2	59				
829942 (kG*k[5mC]*kA*dT*d[5mC]*dT*dG*dG*dA*d[5mC]*dA*dG*dT*k[5mC]*kA*kG; antisense) [compound 829942]		44	70	84	94	< 0.7		92			
798931 (antisense kG*kA*kG*dG*dA*dA*dA*dA*dT*dA*dT*dT*dA*kG*k[5mC]*kA) [compound 798931]		0	43	72	83	7			69		
830053 (kG*kG*kG*dT*dG*dA*dG*dT*dA*dA*d[5mC]*d[5mC]*dA*kG*k[5mC]*kT; antisense) [compound 830053]	68	29	56	79	87	2					
799711 (antisense kG*kG*kT*d[5mC]*dA*dA*dA*d[5mC]*dT*dT*dG*dT*dG*kG*kT*kA) [compound 799711]		36	47	51	54	5				60	
799608 (kA*k[5mC]*kG*dA*dT*d[5mC]*dA*dA*d[5mC]*dT*dT*d[5mC]*dT*kT*kG*kA; antisense) [compound 799608]		35	56	70	76	3				70	
830168 (antisense kA*kT*kG*d[5mC]*dT*dT*dT*dT*dA*d[5mC]*dA*d[5mC]*dA*k[5mC]*k[5mC]*k[5mC]) [compound 830168]	81	31	46	65	73	3					
799671 (antisense kA*kG*kG*dT*dA*dT*dT*dT*dT*dT*dG*dA*dA*kG*kG*k[5mC]) [compound 799671]		22	56	71	74	2				59	
799168 (antisense kG*k[5mC]*kT*dA*dA*dG*dA*dA*d[5mC]*dA*dG*dT*dG*kT*k[5mC]*kG) [compound 799168]		15	13	36	54	5					75
799663 (antisense kG*k[5mC]*kA*d[5mC]*dA*dG*d[5mC]*d[5mC]*dA*dA*dG*dA*dG*kA*kT*kG) [compound 799663]		19	43	61	89	> 20				57	
799544 (kT*kT*k[5mC]*dA*dA*d[5mC]*dA*dA*dG*dT*dT*d[5mC]*d[5mC]*k[5mC]*kT*kA; antisense) [compound 799544]		19	38	54	73	4				72	
772560 (antisense kT*kT*kG*d[5mC]*dA*d[5mC]*dA*dG*d[5mC]*dA*dG*dG*dA*kG*kG*kG) [compound 772560]		0	32	57	82	5					66
799511 (antisense kT*kA*kA*dT*dG*dA*d[5mC]*dA*dA*dT*dT*d[5mC]*d[5mC]*kA*kG*k[5mC]) [compound 799511]	65	0	0	35	65	3					
800031 (kA*kG*kA*dA*dA*d[5mC]*dA*d[5mC]*dA*dG*dT*dT*d[5mC]*k[5mC]*k[5mC]*kT; antisense) [compound 800031]		10	39	57	69	8			52		
830018 (antisense k[5mC]*k[5mC]*k[5mC]*dA*dA*d[5mC]*dA*dG*d[5mC]*d[5mC]*dA*dA*dA*kA*k[5mC]*kG) [compound 830018]	10										
798724 (antisense k[5mC]*kA*k[5mC]*d[5mC]*dG*d[5mC]*d[5mC]*dT*dT*dG*d[5mC]*d[5mC]*d[5mC]*kA*kG*kG) [compound 798724]											19
798918 (kT*k[5mC]*kA*dG*d[5mC]*dT*d[5mC]*dA*d[5mC]*dG*d[5mC]*dT*d[5mC]*kT*kG*kT; antisense) [compound 798918]	44										
829769 (antisense k[5mC]*kA*kG*d[5mC]*dA*dG*dG*dA*dG*dG*d[5mC]*dA*d[5mC]*kG*k[5mC]*kG) [compound 829769]							46				
799464 (antisense kA*kA*kG*d[5mC]*dA*d[5mC]*dT*dT*dG*dG*dT*dA*dA*kG*k[5mC]*kA) [compound 799464]											40
800052 (antisense k[5mC]*k[5mC]*k[5mC]*dT*d[5mC]*dT*dT*d[5mC]*d[5mC]*dG*dG*dG*dA*kG*kG*k[5mC]) [compound 800052]									0		
798840 (k[5mC]*kT*k[5mC]*dT*dT*dG*dT*dT*dG*dT*d[5mC]*d[5mC]*dG*kA*kA*kT; antisense) [compound 798840]									56		
799943 (antisense kT*kG*k[5mC]*d[5mC]*d[5mC]*dT*d[5mC]*dT*d[5mC]*dA*dG*dG*dG*kT*k[5mC]*kT) [compound 799943]	0										
